The values below come from patent US11717511B2, “Pharmaceutical composition comprising derivative compound of 1,2-naphthoquinone for preventing or treating solid cancer or blood cancer” (HUEN Co., Ltd., priority 2018, dated 2023).

Each structure is given as a SMILES string.

In assay [1] the test system is KG1α cells (refractory acute myeloid leukemia). Briefly: Cell viability of KG1α cells, WST assay. It is filed as cell-based, human. The note with it: 0.1-3 μM. How it is done: Acute leukemia has been identified to have a wide variety of causative factors and a variety of cell lines have also been established. To investigate the availability as a wide-spectrum medicine but not a medicine for a particular type of acute leukemia, KG1α cells were constructed by selecting only cells having a stem cell phenotype from KG1 cells, which are a cell line obtained from a -person with acute myeloid leukemia, and then used.
KG1α cells were incubated in IMDM containing 20% fetal bovine serum (FBS). All the cells were incubated at 37 °C in a 5% CO2 incubator, and subcultured every 2 or 3 days before use in the test.
KG1α cells, which have resistance to idarubicin and cytarabine, which are acute myeloid leukemia medicines, are refractory acute myeloid leukemia (AML) cells. KG1α cells incubated in Example 2-1 were seeded at 1×10^5 cells/well in a 96-well plate, and then for cell stabilization, the cells were incubated at 37 °C in a 5% CO2 incubator for 16 hours or longer. Thereafter, the cells were treated with compounds 99 and 163 (0.1-3 μM) shown in Table 4 out of the compounds synthesized in Example 1, and then incubated for 24 hours. […] After 24 hours, the cells were treated with 10 μl of WST solution and then incubated for 2 hours, and then the absorbance at 450 nm was measured by a multi-scan machine.

Assay [2] concerns K562 cells (chronic myeloid leukemia). Briefly: Cell viability of K562 cells, WST assay. The note with it: 0.1-5 μM. It is filed as cell-based, human. The method, then: K562 cells obtained from a -person with chronic myeloid leukemia were incubated in RPMI medium containing 10% fetal bovine serum (FBS) at 37 °C in a 5% CO2 incubator, and subcultured every 2 days before use in the test.
K562 cells incubated in Example 3-1 were seeded at 1×10^5 cells/well in a 96-well plate, and then for cell stabilization, the cells were incubated at 37 °C in a 5% CO2 incubator for 16 hours or longer. Thereafter, the cells were treated with compounds 99, 163, 191, and 192 (0.1-5 μM) out of the compounds synthesized in Example 1-1, and then incubated for 4 hours. DMSO was used as a control. After 4 hours of incubation, 10 μl of WST solution was added to the cells, followed by incubation for 2 hours, and then the absorbance at 450 nm was measured by a multi-scan machine.

In assay [3] the test system is A549 (lung carcinoma) cells. Briefly: Cell viability of solid cancer cells, WST assay, A549. It counts as cell-based. As to conditions: Homo sapiens, 1-30 μM, 6 hours. The text has this:
(§1) To investigate availability as a medicine for solid cancer, A549 cell line obtained from a -person with lung carcinoma, HeLa cell line obtained from a person with cervix adenocarcinoma, HepG2 cell line obtained from a child with hepatocellular carcinoma, MCF7 cell line obtained from a person with breast adenocarcinoma, and Beas-2B cell line obtained from normal lung for comparison with solid cancer cell line were used.
(§2) A549 (lung carcinoma), HeLa (cervix adenocarcinoma), HepG2 (hepatocellular carcinoma), MCF7 (breast adenocarcinoma), and Beas-2B (normal lung) cell lines were incubated in DMEM medium containing 10% FBS at 37 °C in a 5% CO2 incubator, and subcultured every 2 days before use in the test.
(§3) A549 (lung carcinoma), HeLa (cervix adenocarcinoma), HepG2 (hepatocellular carcinoma), MCF7 (breast adenocarcinoma), and Beas-2B (normal lung) cells were seeded at 1×10^4 cells/well in a 96-well plate, and then for cell stabilization, the cells were incubated at 37 °C in a 5% CO2 incubator for 16 hours or longer. Thereafter, the cells were treated with compounds 99, 163, 191, and 192 (1-30 μM) out of the compounds synthesized in Example 1-1, and then incubated for 6 hours. DMSO and β-lapachone were used as a control. After 4 hours of incubation, 10 μl of WST solution was added to the cells, followed by incubation for 2 hours, and then the absorbance at 450 nm was measured by a multi-scan machine. The cell viability of A549 (lung carcinoma), HeLa (cervix adenocarcinoma), HepG2 (hepatocellular carcinoma), MCF7 (breast adenocarcinoma), and Beas-2B (normal lung) cells is shown in Table 5 and FIG. 5.

For assay [4], the system named is HeLa (cervix adenocarcinoma) cells. In words: Cell viability of solid cancer cells, WST assay, HeLa. It is filed as cell-based. The note with it: Homo sapiens, 1-30 μM, 6 hours.
Excerpt: as §1, §2, §3

Assay [5] deals with HepG2 (hepatocellular carcinoma) cells. Briefly: Cell viability of solid cancer cells, WST assay, HepG2. It counts as cell-based. As to conditions: Homo sapiens, 1-30 μM, 6 hours.
Excerpt: as §1, §2, §3

For assay [6], the system named is MCF7 (breast adenocarcinoma) cells. In words: Cell viability of solid cancer cells, WST assay, MCF7. It counts as cell-based. As to conditions: Homo sapiens, 1-30 μM, 6 hours.
Excerpt: as §1, §2, §3

For the molecule `CC(C)c1nc2c(s1)C(=O)C(=O)c1ccccc1-2` [Compound 163], the IC50 in assay [1] (24 hours) was 0.9 µM; in assay [1] (Homo sapiens, KG-1, 24 h) it was 0.5 to 1 µM; in assay [2] (Homo sapiens, K562, 4 h), 2.1 µM; in assay [3] it was 6.1 µM; in assay [4], 4.6 µM; in assay [5] it was 14.1 µM. Further, the IC50 in assay [6] turned out to be 13 µM.
For `Cn1nc2c(n1)-c1ccccc1C(=O)C2=O` [Compound 191], the half-inhibitory concentration (IC50) in assay [2] (4 hours) is 1.6 µM; in assay [2] (Homo sapiens, K562, 4 h), 1 to 2 µM; in assay [3], 8.4 µM; in assay [4] it was 6.6 µM; in assay [5] it was 13.8 µM; in assay [6] it was 14.8 µM.
Turning to `Cn1nnc2c1C(=O)C(=O)c1ccccc1-2` [Compound 192], the IC50 in assay [2] (4 hours) is 1.2 µM; in assay [2] (Homo sapiens, K562, 4 h), 1 to 2 µM; in assay [3], 5 µM; in assay [4] it was 4.4 µM; in assay [5], 12.2 µM; in assay [6], 11.7 µM.

Broadly, the IC50 is the concentration that gives 50% inhibition.
